Patent US20200024278A1, “COMPOSITION COMPRISING ANTIBIOTIC COMPOUND AND AN HETEROCYCLIC COMPOUND AND THEIR USE IN PREVENTING OR TREATING BACTERIAL INFECTIONS” (MUTABILIS, priority 2016, published 2020)

Key:
Test in all cases: MIC, broth microdilution (CLSI), substance alone or ATB combined with compound at 4 or 8 μg/mL
SAU 29213 = assay type: cell-based, S. aureus; settings: SAU 29213
Summary of the method: (§1)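 Broth microdilution; ca-MHB; 5·10^5 CFU/mL; 35° C, 16-20 h; compound alone or fixed 4/8 μg/mL with antibiotic series; endpoint = no visible growth.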

ECL P99 = assay type: cell-based, E. cloacae; settings: ECL P99
Summary of the method: as §1

SPN 49619 = assay type: cell-based, S. pneumoniae; settings: SPN 49619
Summary of the method: as §1

KPN 6299 = assay type: cell-based, K. pneumoniae
Summary of the method: as §1

KPN BAA-1898 = assay type: cell-based, K. pneumoniae; settings: KPN BAA-1898
Summary of the method: as §1

KPN UFR42 = assay type: cell-based, K. pneumoniae; settings: KPN UFR42
Summary of the method: as §1

- MIC ATB combined with Example 11 @8 μg/ml (SAU 29213; with Example 11 at 8 μg/ml): <=0.031 μg/mL
- MIC ATB combined with Example 12 @8 μg/ml (SAU 29213; with Example 12 at 8 μg/ml): <0.031 µg/mL
- MIC ATB combined with Example 13 @8 μg/ml (SAU 29213; with Example 13 at 8 μg/ml): 0.063 µg/mL
- MIC ATB combined with Example 14 @8 μg/ml (SAU 29213; with Example 14 at 8 μg/ml): <0.031 µg/mL
- MIC ATB combined with Example 15 @4 μgml (SAU 29213; with Example 15 at 4 μg/ml): <0.031 µg/mL
- MIC ATB combined with Example 16 @4 μg/ml (SAU 29213; with Example 16 at 4 μg/ml): <0.031 µg/mL
- MIC ATB alone (ECL P99; antibiotic alone): 0.5 µg/mL
- MIC ATB combined with Example 1 @8 μg/ml (ECL P99; with Example 1 @8 μg/ml): <0.031 µg/mL
- MIC ATB combined with Example 1 @8 μg/ml (ECL P99; with Example 1 at 8 μg/ml): <0.031 µg/mL
- MIC ATB combined with Example 7 @8 μgml (ECL P99; with Example 7 at 8 μg/ml): 0.25 µg/mL
- MIC ATB combined with Example 9 @4 μg/ml (ECL P99; with Example 9 @4 μg/ml): <0.031 µg/mL
- MIC ATB combined with Example 9 @4 μg/ml (ECL P99; with Example 9 at 4 μg/ml): <0.031 µg/mL
- MIC ATB combined with Example 11 @8 μg/ml (ECL P99; with Example 11 at 8 μg/ml): <0.031 µg/mL
- MIC ATB combined with Example 12 @8 μg/ml (ECL P99; with Example 12 at 8 μg/ml): <0.031 µg/mL
- MIC ATB combined with Example 13 @8 μg/ml (ECL P99; with Example 13 at 8 μg/ml): 0.25 µg/mL
- MIC ATB combined with Example 14 @8 μg/ml (ECL P99; with Example 14 at 8 μg/ml): <0.031 µg/mL
- MIC ATB combined with Example 15 @4 μgml (ECL P99; with Example 15 at 4 μg/ml): <0.031 µg/mL
- MIC ATB combined with Example 16 @4 μg/ml (ECL P99; with Example 16 at 4 μg/ml): <0.031 µg/mL
- MIC ATB alone (SPN 49619; antibiotic alone): 0.125 µg/mL
- MIC ATB combined with Example 1 @8 μg/ml (SPN 49619; with Example 1 @8 μg/ml): 0.125 µg/mL
- MIC ATB combined with Example 1 @8 μg/ml (SPN 49619; with Example 1 at 8 μg/ml): 0.125 µg/mL
- MIC ATB combined with Example 7 @8 μgml (SPN 49619; with Example 7 at 8 μg/ml): 0.063 µg/mL
- MIC ATB combined with Example 9 @4 μg/ml (SPN 49619; with Example 9 @4 μg/ml): <0.031 µg/mL
- MIC ATB combined with Example 9 @4 μg/ml (SPN 49619; with Example 9 at 4 μg/ml): <0.031 µg/mL
- MIC ATB combined with Example 11 @8 μg/ml (SPN 49619; with Example 11 at 8 μg/ml): <=0.031 μg/mL
- MIC ATB combined with Example 12 @8 μg/ml (SPN 49619; with Example 12 at 8 μg/ml): <0.031 µg/mL
- MIC ATB combined with Example 13 @8 μg/ml (SPN 49619; with Example 13 at 8 μg/ml): 0.063 µg/mL
- MIC ATB combined with Example 14 @8 μg/ml (SPN 49619; with Example 14 at 8 μg/ml): <0.031 µg/mL
- MIC ATB combined with Example 15 @4 μgml (SPN 49619; with Example 15 at 4 μg/ml): <=0.031 μg/mL
- MIC ATB combined with Example 16 @4 μg/ml (SPN 49619; with Example 16 at 4 μg/ml): <0.031 µg/mL
- MIC ATB alone (KPN 6299; antibiotic alone): 1 µg/mL
- MIC ATB combined with Example 1 @8 μg/ml (KPN 6299; with Example 1 @8 μg/ml): 1 µg/mL
- MIC ATB combined with Example 1 @8 μg/ml (KPN 6299; with Example 1 at 8 μg/ml): 1 µg/mL
- MIC ATB combined with Example 7 @8 μgml (KPN 6299; with Example 7 at 8 μg/ml): 1 µg/mL
- MIC ATB combined with Example 9 @4 μg/ml (KPN 6299; with Example 9 @4 μg/ml): 0.063 µg/mL
- MIC ATB combined with Example 9 @4 μg/ml (KPN 6299; with Example 9 at 4 μg/ml): 0.063 µg/mL
- MIC ATB combined with Example 11 @8 μg/ml (KPN 6299; with Example 11 at 8 μg/ml): <0.031 µg/mL
- MIC ATB combined with Example 12 @8 μg/ml (KPN 6299; with Example 12 at 8 μg/ml): <0.031 µg/mL
- MIC ATB combined with Example 13 @8 μg/ml (KPN 6299; with Example 13 at 8 μg/ml): 0.5 µg/mL
- MIC ATB combined with Example 14 @8 μg/ml (KPN 6299; with Example 14 at 8 μg/ml): <0.031 µg/mL
- MIC ATB combined with Example 15 @4 μgml (KPN 6299; with Example 15 at 4 μg/ml): <0.031 µg/mL
- MIC ATB combined with Example 16 @4 μg/ml (KPN 6299; with Example 16 at 4 μg/ml): <0.031 µg/mL
- MIC ATB alone (KPN BAA-1898; antibiotic alone): 1 µg/mL
- MIC ATB combined with Example 1 @8 μg/ml (KPN BAA-1898; with Example 1 @8 μg/ml): 1 µg/mL
- MIC ATB combined with Example 1 @8 μg/ml (KPN BAA-1898; with Example 1 at 8 μg/ml): 1 µg/mL
- MIC ATB combined with Example 7 @8 μgml (KPN BAA-1898; with Example 7 at 8 μg/ml): 1 µg/mL
- MIC ATB combined with Example 9 @4 μg/ml (KPN BAA-1898; with Example 9 @4 μg/ml): <0.031 µg/mL
- MIC ATB combined with Example 9 @4 μg/ml (KPN BAA-1898; with Example 9 at 4 μg/ml): <0.031 µg/mL
- MIC ATB combined with Example 11 @8 μg/ml (KPN BAA-1898; with Example 11 at 8 μg/ml): <0.031 µg/mL
- MIC ATB combined with Example 12 @8 μg/ml (KPN BAA-1898; with Example 12 at 8 μg/ml): <0.031 µg/mL
- MIC ATB combined with Example 13 @8 μg/ml (KPN BAA-1898; with Example 13 at 8 μg/ml): 1 µg/mL
- MIC ATB combined with Example 14 @8 μg/ml (KPN BAA-1898; with Example 14 at 8 μg/ml): <0.031 µg/mL
- MIC ATB combined with Example 15 @4 μgml (KPN BAA-1898; with Example 15 at 4 μg/ml): <0.031 µg/mL
- MIC ATB combined with Example 16 @4 μg/ml (KPN BAA-1898; with Example 16 at 4 μg/ml): <0.031 µg/mL
- MIC ATB alone (KPN UFR42; antibiotic alone): 2 µg/mL
- MIC ATB combined with Example 1 @8 μg/ml (KPN UFR42; with Example 1 @8 μg/ml): 2 µg/mL
- MIC ATB combined with Example 1 @8 μg/ml (KPN UFR42; with Example 1 at 8 μg/ml): 2 µg/mL
- MIC ATB combined with Example 7 @8 μgml (KPN UFR42; with Example 7 at 8 μg/ml): 0.5 µg/mL
- MIC ATB combined with Example 9 @4 μg/ml (KPN UFR42; with Example 9 @4 μg/ml): 0.25 µg/mL
- MIC ATB combined with Example 9 @4 μg/ml (KPN UFR42; with Example 9 at 4 μg/ml): 0.25 µg/mL
- MIC ATB combined with Example 11 @8 μg/ml (KPN UFR42; with Example 11 at 8 μg/ml): <0.031 µg/mL
- MIC ATB combined with Example 12 @8 μg/ml (KPN UFR42; with Example 12 at 8 μg/ml): <0.031 µg/mL
- MIC ATB combined with Example 13 @8 μg/ml (KPN UFR42; with Example 13 at 8 μg/ml): 2 µg/mL
- MIC ATB combined with Example 14 @8 μg/ml (KPN UFR42; with Example 14 at 8 μg/ml): <0.031 µg/mL
- MIC ATB combined with Example 15 @4 μgml (KPN UFR42; with Example 15 at 4 μg/ml): <0.031 µg/mL
- MIC ATB combined with Example 16 @4 μg/ml (KPN UFR42; with Example 16 at 4 μg/ml): <0.031 µg/mL
Structure (SMILES): CN(C)c1cc(NC(=O)CNC(C)(C)C)c(O)c2c1C[C@H]1C[C@H]3[C@H](N(C)C)C(O)=C(C(N)=O)C(=O)[C@@]3(O)C(O)=C1C2=O [TGC]
